Data as given in patent US20160243151A1, “CO-RELEASING COMPOUNDS & FORMULATIONS THEREOF USEFUL FOR INDUCING MITOCHONDRIAL BIOGENESIS AND TISSUE REPAIR” (UNIVERSITÄT ZÜRICH, priority 2013, published 2016).

How the values were obtained:
Hepa 1-6 cells [1] = test: MTT reduction assay in Hepa 1-6 cells; type: cell-based, mouse; conditions: control and cytomix-exposed cells, 24 h
Procedure: Mouse hepatoma cells (ATCC, CRL-1830) were grown to near confluence according to the manufacturer's instructions and then exposed to cytomix (a) for 24 hours. At the time of cytomix exposure, cells were treated with B12-CORM2 (25 μM) (b) or the other compounds shown in panel (A). […] (B) shown the relative mRNA levels for the pro-inflammatory enzyme NOS2 (black) and the anti-inflammatory cytokine interleukin 10 (IL10) (white), as measured by real time RT-PCR. Control and cytomix-treated cells were harvested, disrupted, and total RNA extracted. Both gene products increased in response to cytomix, but B12-CORM2 reduced NOS2 and enhanced IL10 expression. […]
Metabolic capacity assessment: The metabolic state of Hepa 1-6 liver cells was measured using the MTT (3-(4,5-dimethylthiazol-2-yl)-2,5-diphenyltetrazolium bromide, a yellow tetrazole) reduction assay. MTT is reduced to the purple formazan by living cells, which is detected colorimetrically (at 570 nm). […]
Cytomix damages and kills liver cells such as Hepa 1-6 cells. The metabolic state of Hepa 1-6 liver cells were measured using the MTT reduction assay. MTT (3-(4,5-dimethylthiazol-2-yl)-2,5-diphenyltetrazolium bromide, a yellow tetrazole) is reduced to the purple formazan by living cells, which is detected colorimetrically. […]

H9c2 cells [2] = test: Western blot densitometry in H9c2 cells exposed to DOX; type: cell-based, rat; conditions: +DOX (0.5 μg/ml), 3 days of differentiation
Procedure: (§1) Cell culture and treatments. H9c2 cells (embryonic rat cardiomyocytes; ATCC) were maintained in DMEM (Invitrogen) supplemented with 10% fetal bovine serum (Invitrogen) and 2 mmol/l 1-glutamine. Cells were plated on 35- or 100-mm dishes in DMEM with 2% FCS for differentiation. Doxorubicin (DOX) was added to complete medium and incubated at 37° C. for different intervals at a concentration (0.5 μg/ml) similar to the plasma concentrations encountered in clinical use. Some cells were exposed to B12-CORM2 (25 μM) with or without DOX. Cells collected after 3 days of differentiation.
Differentiation assessment. Western blot analysis and densitometry were performed relative to tubulin for alpha-actinin as a specific marker of cardiomyocyte differentiation and intactness of the contractile apparatus.
Mitochondrial integrity and density assessment. Western blot analysis and densitometry were performed relative to tubulin for citrate synthase.
DOX and/or B12-CORM2 were added complete medium on day 1.

H9c2 cells [3] = test: cell survival by Trypan blue exclusion in H9c2 cells exposed to DOX; type: cell-based, rat; conditions: +DOX (0.5 μg/ml)
Procedure: as §1
Cell survival. Cell survival was measured by Trypan blue exclusion.
DOX and/or B12-CORM2 were added complete medium on day 1. […] Mitochondrial protection was accompanied by improved cell survival of B12-CORM2-treated cells exposed to DOX, as assessed by Trypan blue exclusion (Table 5).

Hepa 1-6 cells [4] = test: NOS2 and IL10 mRNA in cytomix-exposed Hepa 1-6 cells; type: cell-based, mouse; conditions: cytomix 24 h
Procedure: Mouse hepatoma cells (ATCC, CRL-1830) were grown to near confluence according to the manufacturer's instructions and then exposed to cytomix (a) for 24 hours. At the time of cytomix exposure, cells were treated with B12-CORM2 (25 μM) (b) or the other compounds shown in panel (A). […] (B) shown the relative mRNA levels for the pro-inflammatory enzyme NOS2 (black) and the anti-inflammatory cytokine interleukin 10 (IL10) (white), as measured by real time RT-PCR. Control and cytomix-treated cells were harvested, disrupted, and total RNA extracted. Both gene products increased in response to cytomix, but B12-CORM2 reduced NOS2 and enhanced IL10 expression. […] Moreover, administration of the low molecular weight anti-oxidant N-acetyl cysteine (NAC, 5 mM) (d) abrogates the anti-inflammatory effect of the Re-based CORM according to the invention in accordance with the proposed redox mechanism of action. Finally, the NF-kB inhibitor BAY11 (BAY 11-7082, Santa Cruz) (e) fully blocks the cytomix effect on NOS2, but only partially reduces the effect on IL-10, indicating the NF-kB-independent mechanism of action of B12-CORM2 (*, P<0.05 compared with control cells; #, P<0.05 compared with cytomix treatment). […]
Inflammation assessment. The mRNA levels for the pro-inflammatory enzyme NOS2 and the anti-inflammatory cytokine interleukin 10 (IL10) were measured by real time RT-PCR.

E14 ESC embryoid bodies = test: beating embryoid body out-growths; type: cell-based, mouse; conditions: MitoQ given in the initial five days of differentiation
Procedure: Culture and differentiation of murine E14 cells, murine D3 cells and human MEL1 cells. These cell lines were independently grown at 37° C. in 5% CO2 on gelatin-coated substrates prepared by coating plastic tissue culture flasks with a 0.1% gelatin solution. Cells were maintained in a standard medium (Iscove's Modified Dulbecco's Medium, Invitrogen) plus 15% newborn calf serum, non-essential amino acids, and nucleosides stock. Leukemia inhibitory factor (LIF) (Chemicon) at a final concentration of 1,000 U/ml and 100 μM 2-mercaptoethanol were added to standard medium to prevent differentiation. For the induction of differentiation the hanging drop method such as described in Keller, 1995, Curr. Opin. Cell. Biol., 7(6), 862-9 was used. E14 cells were cultivated without LIF in hanging drops to form embryoid bodies (EBs) ([…] cells per drop) for 2 days, then kept in suspension for 2 days, and finally plated on gelatin-coated, 96 well, single-culture dishes or single well slides. […] Adhered EBs monitored daily under an inverted microscope for spontaneously beating foci from day 3 onward until day 13. In total, 3×96 EBs from E14 cells were monitored. To confirm that the increase in contracting EBs is HO-1/CO-mediated, E14 cells were transduced with Sh-HO1 vector or empty vector, differentiated as above and monitored by fluorescence microscopy. […]

hemin
MTT reduction (metabolic capacity) (Hepa 1-6 cells [1]): did not provide any protection against the cytomix-induced damage

COc1cccc2c1C(=O)c1c(O)c3c(c(O)c1C2=O)C[C@@](O)(C(=O)CO)C[C@@H]3O[C@H]1C[C@H](N)[C@H](O)[C@H](C)O1 [DOX, Doxorubicin]
Alpha actinin expression levels (% as compared to untreated cells) (H9c2 cells [2]): 57.1% (11) | Citrate synthase expression levels (% as compared to untreated cells) (H9c2 cells [2]): 60% (12.3) | Surviving cells (% as compared to untreated cells) (H9c2 cells [3]): 61% (9.9)

CC(=O)N[C@@H](CS)C(=O)O [NAC, N-acetyl cysteine]
inflammatory response to cytomix (NOS2, IL10 mRNA) (Hepa 1-6 cells [4]): not protective

COC1=C(OC)C(=O)C(CCCCCCCCCC[P+](c2ccccc2)(c2ccccc2)c2ccccc2)=C(C)C1=O [MitoQ]
effect on B12-CORM2-induced percentage of beating EB (E14 ESC embryoid bodies): the B12-CORM2 effect was blocked

Cc1ccc(S(=O)(=O)/C=C/C#N)cc1 [BAY11]
cytomix effect on NOS2 induction (Hepa 1-6 cells [4]): fully blocks the cytomix effect on NOS2 induction
